These results are taken from patent US11964973B2 (priority 2019, dated 2024).

The structures appear in SMILES notation.

The subject of the first assay is human venous whole blood, CD8 positive population (pERK). Briefly: DGK human whole blood pERK assay. In kind it is cell-based. Conditions: Homo sapiens, CD8 positive, human whole blood pERK; read-out: DGK HWB. How it is done: Assay 11: DGK Human Whole Blood pERK Assay
Human whole blood ERK phosphorylation assay was performed with human venous whole blood obtained from healthy donors (drawn with Heparin as anti-coagulant). […] Heparinized human whole blood was added to the compound plate at 9 μL per well and incubated for one hour at 37° C. in a humidified 95%, air/5% CO2 incubator. After one hour of compound incubation, 1 μL of human anti-CD3 antibody (in-house) in the presence of cross-linking antibody goat anti-mouse IgG (4 μg/mL) was added to the well at 1 μg/mL final concentration for stimulation of pathway and additionally incubated for 15 minutes at 37° C. […] Samples analyzed using the Intellicyt® iQue Screener PLUS. The pERK activation was quantitated by the percentage of pERK positive population within CD8 positive population.
Regarding `CCO[C@H]1CN(c2cc(=O)n(C)c3ccc(C#N)nc23)CC[C@@H]1Oc1ccccc1` (relative stereo) [Example 341, trans-8-(3-Ethoxy-4-phenoxypiperidin-1-yl)-5-methyl-6-oxo-5,6-dihydro-1,5-naphthyridine-2-carbonitrile], the EC50 is 0.59 µM. Still for that read-out and setting: next, `CC[C@@H]1CN(c2cc(=O)n(C)c3ccc(C#N)nc23)[C@H](C)C[C@@H]1Oc1cccc(C(F)(F)F)c1` [Example 309, 8-((2R,4S,5R)-5-ethyl-2-methyl-4-(3-(trifluoromethyl)phenoxy)piperidin-1-yl)-5-methyl-6-oxo-5,6-dihydro-1,5-naphthyridine-2-carbonitrile]: 4 µM; `CC1CN(c2c(C#N)c(=O)n(C)c3ccc(C#N)nc23)CCC1N(C)C1CCC(F)(F)CC1` (single isomer, unassigned) [Example 329]: 13 µM; `CCO[C@H]1CN(c2cc(=O)n(C)c3ccc(C#N)nc23)CC[C@@H]1Oc1ccc(S(C)(=O)=O)cc1` [Example 354, 8-((3S,4S)-3-ethoxy-4-(4-(methylsulfonyl)phenoxy)piperidin-1-yl)-5-methyl-6-oxo-5,6-dihydro-1,5-naphthyridine-2-carbonitrile]: 20 µM.

The assay is the same for the next values; noted with them: Homo sapiens, CD8 positive, read-out: DGK HWB, human whole blood pERK.
As for `CC[C@@H]1CN(c2cc(=O)n(C)c3ccc(C#N)nc23)[C@@H](C)C[C@@H]1Oc1ccc(OC(C)C)cn1` [Example 299, 8-((2S,4S,5R)-5-ethyl-4-((5-isopropoxypyridin-2-yl)oxy)-2-methylpiperidin-1-yl)-5-methyl-6-oxo-5,6-dihydro-1,5-naphthyridine-2-carbonitrile], the EC50 is 0.78 µM. Still for that read-out and setting: in the case of `CC1CN(c2c(C#N)c(=O)n(C)c3ccc(C#N)nc23)CCC1N(C)C(=O)c1ccc(C(F)(F)F)cc1` (single isomer, unassigned) [Example 292, N-(1-(3,6-dicyano-1-methyl-2-oxo-1,2-dihydro-1,5-naphthyridin-4-yl)-3-methylpiperidin-4-yl)-N-methyl-4-(trifluoromethyl)benzamide] it was 20 µM; in that of `CC[C@@H]1CN(c2nc(=O)n(C)c3ccc(C#N)nc23)[C@@H](C)C[C@@H]1Oc1ccc(OC(C)C)cn1` [Example 307, 4-((2S,4S,5R)-5-ethyl-4-((5-isopropoxypyridin-2-yl)oxy)-2-methylpiperidin-1-yl)-1-methyl-2-oxo-1,2-dihydropyrido[3,2-d]pyrimidine-6-carbonitrile], 0.17 µM; in that of `CC(C)Oc1ccc(OC2C[C@H](C)N(c3nc(=O)n(C)c4ccc(C#N)nc34)C[C@@H]2C)nc1` (mixture of isomers) [Example 243, (±)-Cis-(-4-((5-isopropoxypyridin-2-yl)oxy)-2,5-dimethylpiperidin-1-yl)-1-methyl-2-oxo-1,2-dihydropyrido[3,2-d]pyrimidine-6-carbonitrile], 0.59 µM. The same measure, in the same setting: in the case of `CC[C@@H]1CN(c2nc(=O)n(C)c3ccc(C#N)nc23)[C@H](C)C[C@H]1Oc1ccc(OC(C)C)cn1` [Example 303, 4-((2R,4R,5R)-5-ethyl-4-((5-isopropoxypyridin-2-yl)oxy)-2-methylpiperidin-1-yl)-1-methyl-2-oxo-1,2-dihydropyrido[3,2-d]pyrimidine-6-carbonitrile] it was 0.38 µM.

The assay is the same for the next values; noted with them: human whole blood pERK; read-out: DGK HWB.
Regarding `CCO[C@H]1CN(c2cc(=O)n(C)c3ccc(C#N)nc23)CC[C@@H]1Oc1ccccc1` (relative stereo) [Example 342, trans-8-(3-Ethoxy-4-phenoxypiperidin-1-yl)-5-methyl-6-oxo-5,6-dihydro-1,5-naphthyridine-2-carbonitrile], the EC50 was 0.84 µM. As for `CC1CN(c2c(C#N)c(=O)n(C)c3ccc(C#N)nc23)CCC1N(C)C1CCC(F)(F)CC1` (single isomer, unassigned) [Example 330], the EC50 was 20 µM. For `CCO[C@H]1CN(c2cc(=O)n(C)c3ccc(C#N)nc23)CC[C@@H]1Oc1nc2ccccc2s1` [Example 373], the EC50 came to 1.6 µM.

With `CCO[C@H]1CN(c2cc(=O)n(C)c3ccc(C#N)nc23)CC[C@@H]1Oc1cc(C(F)(F)F)ccn1` [Example 365, 8-((3S,4S)-3-ethoxy-4-((4-(trifluoromethyl)pyridin-2-yl)oxy)piperidin-1-yl)-5-methyl-6-oxo-5,6-dihydro-1,5-naphthyridine-2-carbonitrile], the EC50 was determined as 0.6 µM.

In the case of `CCO[C@H]1CN(c2cc(=O)n(C)c3ccc(C#N)nc23)CC[C@@H]1Oc1cccc(C(F)(F)F)n1` (relative stereo) [Example 364, trans-8-(3-Ethoxy-4-((6-(trifluoromethyl)pyridin-2-yl)oxy)piperidin-1-yl)-5-methyl-6-oxo-5,6-dihydro-1,5-naphthyridine-2-carbonitrile], the EC50 was determined as 20 µM.

`CCO[C@H]1CN(c2cc(=O)n(C)c3ccc(C#N)nc23)CC[C@@H]1Oc1ccc(C(F)(F)F)cc1` [Example 344, 8-((3S,4S)-3-ethoxy-4-(4-(trifluoromethyl)phenoxy)piperidin-1-yl)-5-methyl-6-oxo-5,6-dihydro-1,5-naphthyridine-2-carbonitrile]: the EC50 stood at 20 µM. Same read-out and setting: in the case of `CCO[C@H]1CN(c2cc(=O)n(C)c3ccc(C#N)nc23)CC[C@H]1Oc1ccc(OC(C)C)cn1` (relative stereo) [Example 371, cis-8-(3-Ethoxy-4-((5-isopropoxypyridin-2-yl)oxy)piperidin-1-yl)-5-methyl-6-oxo-5,6-dihydro-1,5-naphthyridine-2-carbonitrile] it was 3.6 µM.

Consider `CCO[C@H]1CN(c2cc(=O)n(C)c3ccc(C#N)nc23)CC[C@@H]1Oc1cccc(OC(F)(F)F)c1` [Example 351, 8-((3S,4S)-3-ethoxy-4-(3-(trifluoromethoxy)phenoxy)piperidin-1-yl)-5-methyl-6-oxo-5,6-dihydro-1,5-naphthyridine-2-carbonitrile], for which the EC50 came to 0.21 µM. Consider `CCO[C@H]1CN(c2cc(=O)n(C)c3ccc(C#N)nc23)CC[C@@H]1Oc1cccc(OC(F)(F)F)c1` [Example 352, 8-((3S,4S)-3-ethoxy-4-(3-(trifluoromethoxy)phenoxy)piperidin-1-yl)-5-methyl-6-oxo-5,6-dihydro-1,5-naphthyridine-2-carbonitrile], for which the EC50 was 12 µM. As for `CCO[C@H]1CN(c2cc(=O)n(C)c3ccc(C#N)nc23)CC[C@@H]1Oc1cc(C(F)(F)F)ccn1` [Example 366, 8-((3S,4S)-3-ethoxy-4-((4-(trifluoromethyl)pyridin-2-yl)oxy)piperidin-1-yl)-5-methyl-6-oxo-5,6-dihydro-1,5-naphthyridine-2-carbonitrile], the EC50 was 20 µM.

For `CCO[C@H]1CN(c2cc(=O)n(C)c3ccc(C#N)nc23)CC[C@@H]1Oc1ccccc1C(F)(F)F` [Example 345, 8-((3S,4S)-3-ethoxy-4-(2-(trifluoromethyl)phenoxy)piperidin-1-yl)-5-methyl-6-oxo-5,6-dihydro-1,5-naphthyridine-2-carbonitrile], the EC50 worked out at 0.82 µM.

The same assay, now with this note: read-out: DGK HWB; human whole blood pERK.
On to `C[C@H]1CN(c2cc(=O)n(C)c3ccc(C#N)nc23)[C@@H](C)CC1N(C)Cc1ccc(F)cc1` (single isomer, unassigned) [Example 333], for which the EC50 is 5.5 µM. On to `CC(C)Oc1ccc(OC2C[C@H](C)N(c3nc(=O)n(C)c4ccc(C#N)nc34)C[C@H]2C)nc1` (stereo partly drawn) [Example 250, 4-((2S,5R)-4-((5-isopropoxypyridin-2-yl)oxy)-2,5-dimethylpiperidin-1-yl)-1-methyl-2-oxo-1,2-dihydropyrido[3,2-d]pyrimidine-6-carbonitrile], for which the EC50 was 2.1 µM.

As for `C[C@@H]1CN(c2nc(=O)n(C)c3ccc(C#N)nc23)[C@H](C)CC1Oc1cccc(C(F)(F)F)c1` (stereo partly drawn) [Example 256, 4-((2R,5R)-2,5-dimethyl-4-(3-(trifluoromethyl)phenoxy)piperidin-1-yl)-1-methyl-2-oxo-1,2-dihydropyrido[3,2-d]pyrimidine-6-carbonitrile], the EC50 came out at 4.7 µM. For `CC1CN(c2c(C#N)c(=O)n(C)c3ccc(C#N)nc23)CCC1N(C)C(=O)c1ccc(C(F)(F)F)cc1` (single isomer, unassigned) [Example 293, N-(1-(3,6-dicyano-1-methyl-2-oxo-1,2-dihydro-1,5-naphthyridin-4-yl)-3-methylpiperidin-4-yl)-N-methyl-4-(trifluoromethyl)benzamide], the EC50 came out at 20 µM. For `CC(C)Oc1ccc(OC2C[C@H](C)N(c3nc(=O)n(C)c4ccc(C#N)nc34)C[C@H]2C)nc1` (stereo partly drawn) [Example 247, 4-((2S,5R)-4-((5-isopropoxypyridin-2-yl)oxy)-2,5-dimethylpiperidin-1-yl)-1-methyl-2-oxo-1,2-dihydropyrido[3,2-d]pyrimidine-6-carbonitrile], the EC50 amounted to 0.74 µM. Turning to `CCO[C@H]1CN(c2cc(=O)n(C)c3ccc(C#N)nc23)CC[C@@H]1Oc1ccc(Cl)c(F)c1` [Example 357, 8-((3S,4S)-4-(4-chloro-3-fluorophenoxy)-3-ethoxypiperidin-1-yl)-5-methyl-6-oxo-5,6-dihydro-1,5-naphthyridine-2-carbonitrile], the EC50 was found to be 20 µM. In the case of `C[C@@H]1CN(c2cc(=O)n(C)c3ccc(C#N)nc23)[C@@H](C)CC1N(C)Cc1ccc(F)cc1` (single isomer, unassigned) [Example 332], the EC50 was 16 µM.

Take `CCO[C@H]1CN(c2cc(=O)n(C)c3ccc(C#N)nc23)CC[C@@H]1Oc1ccc(Cl)c(F)c1` [Example 358, 8-((3S,4S)-4-(4-chloro-3-fluorophenoxy)-3-ethoxypiperidin-1-yl)-5-methyl-6-oxo-5,6-dihydro-1,5-naphthyridine-2-carbonitrile]: the EC50 was determined as 7 µM.
